The results in this text go back to ChEMBL document CHEMBL4619804, “Target-Based Identification and Optimization of 5-Indazol-5-yl Pyridones as Toll-like Receptor 7 and 8 Antagonists Using a Biochemical TLR8 Antagonist Competition Assay” (J Med Chem, 2020).

The target of one experiment is T1, Toll-like receptor 9 (Mus musculus, UniProt Q9EQU3).
T1 sequence (Q9EQU3 whole entry): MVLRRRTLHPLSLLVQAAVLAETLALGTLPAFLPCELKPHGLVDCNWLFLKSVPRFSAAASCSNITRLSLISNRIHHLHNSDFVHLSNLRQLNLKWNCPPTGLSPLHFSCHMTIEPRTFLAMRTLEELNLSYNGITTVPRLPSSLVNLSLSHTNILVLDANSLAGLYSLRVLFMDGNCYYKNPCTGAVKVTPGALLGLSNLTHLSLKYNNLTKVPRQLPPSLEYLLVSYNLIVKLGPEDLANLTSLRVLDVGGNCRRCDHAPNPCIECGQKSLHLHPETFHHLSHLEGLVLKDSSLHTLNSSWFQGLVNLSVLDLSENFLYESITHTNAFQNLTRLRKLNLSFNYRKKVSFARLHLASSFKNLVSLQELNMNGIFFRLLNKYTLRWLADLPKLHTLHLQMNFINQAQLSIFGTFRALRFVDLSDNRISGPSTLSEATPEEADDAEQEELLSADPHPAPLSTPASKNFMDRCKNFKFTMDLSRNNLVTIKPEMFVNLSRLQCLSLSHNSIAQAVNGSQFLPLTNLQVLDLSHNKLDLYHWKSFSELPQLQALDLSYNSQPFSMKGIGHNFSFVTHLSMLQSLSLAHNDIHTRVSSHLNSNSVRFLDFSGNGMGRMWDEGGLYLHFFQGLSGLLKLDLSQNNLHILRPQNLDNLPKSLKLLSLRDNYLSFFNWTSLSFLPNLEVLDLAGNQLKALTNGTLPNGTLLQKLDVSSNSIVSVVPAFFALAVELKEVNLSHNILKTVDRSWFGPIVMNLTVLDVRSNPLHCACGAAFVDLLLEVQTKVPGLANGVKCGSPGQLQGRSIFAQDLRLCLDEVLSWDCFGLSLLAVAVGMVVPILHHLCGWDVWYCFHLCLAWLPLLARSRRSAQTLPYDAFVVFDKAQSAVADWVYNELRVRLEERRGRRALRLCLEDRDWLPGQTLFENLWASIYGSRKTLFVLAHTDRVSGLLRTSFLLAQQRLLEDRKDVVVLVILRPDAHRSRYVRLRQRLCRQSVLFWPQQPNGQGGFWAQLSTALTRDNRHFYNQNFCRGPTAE
Description: Antagonist activity at TLR9 in mouse whole blood inhibition of DOTAP-ODN2216-induced IFNalpha production preincubated for 30 mins followed by DOTAP-ODN2216 addition and measured after 20 hrs by ELISA. The format is tissue-based. (An ELISA detects its analyte on a solid surface through an enzyme-linked reagent.)

A further experiment addresses Toll-like receptor 2 (Homo sapiens, UniProt O60603). Kind of experiment: Antagonist activity at TLR2 in human PBMC assessed as inhibition of Pam3CSK4-induced TNFalpha production preincubated for 30 mins followed by Pam3CSK4 addition and measured after 20 hrs by HTRF assay. The format is cell-based. On the technique in general: In TR-FRET formats the signal depends on donor and acceptor labels being close together.

Sequence of Toll-like receptor 2 (O60603 whole entry): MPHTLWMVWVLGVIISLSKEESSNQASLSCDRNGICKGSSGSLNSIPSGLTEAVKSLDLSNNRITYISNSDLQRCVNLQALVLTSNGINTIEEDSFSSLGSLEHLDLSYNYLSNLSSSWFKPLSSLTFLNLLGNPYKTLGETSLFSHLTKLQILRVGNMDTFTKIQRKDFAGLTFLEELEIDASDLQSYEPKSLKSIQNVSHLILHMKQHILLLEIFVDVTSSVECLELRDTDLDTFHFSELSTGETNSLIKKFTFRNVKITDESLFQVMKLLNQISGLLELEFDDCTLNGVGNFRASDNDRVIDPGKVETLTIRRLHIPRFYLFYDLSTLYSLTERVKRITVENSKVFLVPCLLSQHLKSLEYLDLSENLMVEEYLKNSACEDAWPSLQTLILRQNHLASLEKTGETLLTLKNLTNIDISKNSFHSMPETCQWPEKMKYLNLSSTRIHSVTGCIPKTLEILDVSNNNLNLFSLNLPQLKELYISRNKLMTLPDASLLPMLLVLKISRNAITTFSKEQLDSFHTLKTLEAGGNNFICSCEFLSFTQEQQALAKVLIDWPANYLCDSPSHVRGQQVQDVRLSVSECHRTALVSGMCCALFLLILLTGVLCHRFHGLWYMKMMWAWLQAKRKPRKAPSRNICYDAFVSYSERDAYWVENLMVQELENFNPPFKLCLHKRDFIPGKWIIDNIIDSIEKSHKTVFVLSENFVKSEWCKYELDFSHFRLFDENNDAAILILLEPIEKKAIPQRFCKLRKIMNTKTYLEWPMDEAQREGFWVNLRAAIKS

In the case of `O=c1ccc(-c2cc(C(F)(F)F)c3nn([C@H]4CCNC[C@@H]4F)cc3c2)c2n1CCC2`, the figures for the IC50 against Toll-like receptor 9 and on Toll-like receptor 2 were greater than 10 µM and greater than 6.5 µM, respectively.
